Measured values published in PubChem BioAssay (NCI).
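Compound exposure: 48 hours, 5 concentrations, 96-well plates. TGI denotes the concentration required for complete inhibition of growth.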

Key:
Experiment in all cases: DTP human tumour cell line panel, 48 h
XF 498 CNS = tested on: XF 498 CNS
HCT-116 colon = tested on: HCT-116 colon
IGROV1 ovarian = tested on: IGROV1 ovarian
A549 NSCLC = tested on: A549 NSCLC
OVCAR-8 ovarian = tested on: OVCAR-8 ovarian
SNB-78 CNS = tested on: SNB-78 CNS
SK-OV-3 ovarian = tested on: SK-OV-3 ovarian
DLD-1 colon = tested on: DLD-1 colon
HOP-92 NSCLC = tested on: HOP-92 NSCLC
SR leukemia = tested on: SR leukemia
HL-60(TB) leukemia = tested on: HL-60(TB) leukemia
DMS 114 small cell lung = tested on: DMS 114 small cell lung
U251 CNS = tested on: U251 CNS
TK-10 renal = tested on: TK-10 renal
NCI-H460 lung = tested on: NCI-H460 lung
K-562 leukemia = tested on: K-562 leukemia
SK-MEL-28 melanoma = tested on: SK-MEL-28 melanoma
CAKI-1 renal = tested on: CAKI-1 renal
HOP-62 NSCLC = tested on: HOP-62 NSCLC
786-0 renal = tested on: 786-0 renal
ACHN renal = tested on: ACHN renal
SK-MEL-5 melanoma = tested on: SK-MEL-5 melanoma
SNB-19 CNS = tested on: SNB-19 CNS
MALME-3M melanoma = tested on: MALME-3M melanoma
NCI-H23 lung = tested on: NCI-H23 lung
LXFL 529 NSCLC = tested on: LXFL 529 NSCLC
M19-MEL melanoma = tested on: M19-MEL melanoma
UACC-62 melanoma = tested on: UACC-62 melanoma
OVCAR-4 ovarian = tested on: OVCAR-4 ovarian
KM12 colon = tested on: KM12 colon
SW-620 colon = tested on: SW-620 colon
SK-MEL-2 melanoma = tested on: SK-MEL-2 melanoma
SF-295 CNS = tested on: SF-295 CNS
LOX IMVI melanoma = tested on: LOX IMVI melanoma
M14 melanoma = tested on: M14 melanoma
RXF 393 renal = tested on: RXF 393 renal
HCT-15 colon = tested on: HCT-15 colon
DMS 273 small cell lung = tested on: DMS 273 small cell lung
SF-539 CNS = tested on: SF-539 CNS
NCI-H522 lung = tested on: NCI-H522 lung
HCC-2998 colon = tested on: HCC-2998 colon
UO-31 renal = tested on: UO-31 renal
RPMI-8226 leukemia = tested on: RPMI-8226 leukemia
SF-268 CNS = tested on: SF-268 CNS
SN12C renal = tested on: SN12C renal
MOLT-4 leukemia = tested on: MOLT-4 leukemia
NCI-H226 lung = tested on: NCI-H226 lung
OVCAR-3 ovarian = tested on: OVCAR-3 ovarian
CCRF-CEM leukemia = tested on: CCRF-CEM leukemia
OVCAR-5 ovarian = tested on: OVCAR-5 ovarian
SNB-75 CNS = tested on: SNB-75 CNS
HT29 colon = tested on: HT29 colon
KM20L2 colon = tested on: KM20L2 colon
UACC-257 melanoma = tested on: UACC-257 melanoma
EKVX NSCLC = tested on: EKVX NSCLC
COLO 205 colon = tested on: COLO 205 colon

For `COc1ccc2c(c1)O[C@@H]1c3ccc(OC)cc3OC[C@H]21`, the TGI (XF 498 CNS) was over 100 µM, the TGI (HCT-116 colon) was over 100 µM and the TGI (IGROV1 ovarian) was over 100 µM. For the same compound, the TGI (A549 NSCLC) was over 100 µM, the TGI (OVCAR-8 ovarian) was over 100 µM and the TGI (SNB-78 CNS) was over 100 µM. For the same compound, the TGI (SK-OV-3 ovarian) was over 100 µM, the TGI (DLD-1 colon) was over 100 µM and the TGI (HOP-92 NSCLC) was 79.7 µM. The TGI (SR leukemia) was 97.5 µM, the TGI (HL-60(TB) leukemia) was over 100 µM and the TGI (DMS 114 small cell lung) was 58.9 µM. For the same compound, the TGI (U251 CNS) was over 100 µM, the TGI (TK-10 renal) was over 100 µM and the TGI (NCI-H460 lung) was 82 µM. For the same compound, the TGI (K-562 leukemia) was 57.3 µM, the TGI (SK-MEL-28 melanoma) was over 100 µM and the TGI (CAKI-1 renal) was over 100 µM. The TGI (HOP-62 NSCLC) was over 100 µM, the TGI (786-0 renal) was 72.1 µM and the TGI (ACHN renal) was over 100 µM. For the same compound, the TGI (SK-MEL-5 melanoma) was 39.2 µM, the TGI (SNB-19 CNS) was over 100 µM and the TGI (MALME-3M melanoma) was over 100 µM. For the same compound, the TGI (NCI-H23 lung) was over 100 µM, the TGI (LXFL 529 NSCLC) was over 100 µM and the TGI (M19-MEL melanoma) was over 100 µM. For the same compound, the TGI (UACC-62 melanoma) was over 100 µM, the TGI (OVCAR-4 ovarian) was over 100 µM and the TGI (KM12 colon) was over 100 µM. For the same compound, the TGI (SW-620 colon) was over 100 µM, the TGI (SK-MEL-2 melanoma) was 89.6 µM and the TGI (SF-295 CNS) was over 100 µM. The TGI (LOX IMVI melanoma) was 83.7 µM, the TGI (M14 melanoma) was over 100 µM and the TGI (RXF 393 renal) was 51 µM. The TGI (HCT-15 colon) was over 100 µM, the TGI (DMS 273 small cell lung) was over 100 µM and the TGI (SF-539 CNS) was over 100 µM. The TGI (NCI-H522 lung) was 51.6 µM, the TGI (HCC-2998 colon) was over 100 µM and the TGI (UO-31 renal) was 77.6 µM. For the same compound, the TGI (RPMI-8226 leukemia) was over 100 µM, the TGI (SF-268 CNS) was over 100 µM and the TGI (SN12C renal) was over 100 µM. The TGI (MOLT-4 leukemia) was 50.3 µM, the TGI (NCI-H226 lung) was 69.6 µM and the TGI (OVCAR-3 ovarian) was over 100 µM. It also gave a TGI (CCRF-CEM leukemia) of 80.5 µM, a TGI (OVCAR-5 ovarian) of over 100 µM and a TGI (SNB-75 CNS) of 51.4 µM.
With `Cn1c(=O)c2ccccc2c2nc3ccccc3nc21` the TGI (HCT-116 colon) was over 100 µM, the TGI (IGROV1 ovarian) was over 100 µM and the TGI (A549 NSCLC) was over 100 µM. For the same compound, the TGI (OVCAR-8 ovarian) was over 100 µM, the TGI (SNB-78 CNS) was over 100 µM and the TGI (HT29 colon) was over 100 µM. For the same compound, the TGI (SK-OV-3 ovarian) was over 100 µM, the TGI (SR leukemia) was over 100 µM and the TGI (DMS 114 small cell lung) was over 100 µM. For the same compound, the TGI (U251 CNS) was over 100 µM, the TGI (TK-10 renal) was over 100 µM and the TGI (KM20L2 colon) was over 100 µM. The TGI (K-562 leukemia) was over 100 µM, the TGI (SK-MEL-28 melanoma) was over 100 µM and the TGI (786-0 renal) was over 100 µM. For the same compound, the TGI (UACC-257 melanoma) was over 100 µM, the TGI (ACHN renal) was over 100 µM and the TGI (EKVX NSCLC) was over 100 µM. It also gave a TGI (SK-MEL-5 melanoma) of over 100 µM, a TGI (SNB-19 CNS) of over 100 µM and a TGI (MALME-3M melanoma) of over 100 µM. It also gave a TGI (NCI-H23 lung) of over 100 µM, a TGI (LXFL 529 NSCLC) of over 100 µM and a TGI (M19-MEL melanoma) of over 100 µM. For the same compound, the TGI (UACC-62 melanoma) was over 100 µM, the TGI (KM12 colon) was over 100 µM and the TGI (SW-620 colon) was over 100 µM. The TGI (SK-MEL-2 melanoma) was over 100 µM, the TGI (SF-295 CNS) was over 100 µM and the TGI (RXF 393 renal) was over 100 µM. For the same compound, the TGI (HCT-15 colon) was over 100 µM, the TGI (DMS 273 small cell lung) was over 100 µM and the TGI (SF-539 CNS) was over 100 µM. The TGI (HCC-2998 colon) was over 100 µM, the TGI (UO-31 renal) was over 100 µM and the TGI (RPMI-8226 leukemia) was over 100 µM. It also gave a TGI (SF-268 CNS) of over 100 µM, a TGI (SN12C renal) of over 100 µM and a TGI (MOLT-4 leukemia) of over 100 µM. It also gave a TGI (NCI-H226 lung) of over 100 µM, a TGI (OVCAR-5 ovarian) of over 100 µM and a TGI (SNB-75 CNS) of 58.9 µM. The TGI (COLO 205 colon) was over 100 µM.
`CN(C)CCNC(=O)c1ccc(Cl)c2c(Nc3ccc(S(=O)(=O)N=C(N)N)cc3)c3ccccc3nc12` gave a TGI (XF 498 CNS) of 27.1 µM, a TGI (HCT-116 colon) of 17.8 µM and a TGI (IGROV1 ovarian) of 18.5 µM. For the same compound, the TGI (A549 NSCLC) was 17.2 µM, the TGI (OVCAR-8 ovarian) was 15.2 µM and the TGI (SNB-78 CNS) was 48.1 µM. It also gave a TGI (HT29 colon) of 10.3 µM, a TGI (DLD-1 colon) of 18.4 µM and a TGI (SR leukemia) of 9.06 µM. The TGI (HL-60(TB) leukemia) was 6.27 µM, the TGI (DMS 114 small cell lung) was 7.98 µM and the TGI (U251 CNS) was 16.4 µM. It also gave a TGI (TK-10 renal) of 38.7 µM, a TGI (NCI-H460 lung) of 10.2 µM and a TGI (KM20L2 colon) of 19.2 µM. For the same compound, the TGI (K-562 leukemia) was 16.9 µM, the TGI (SK-MEL-28 melanoma) was 26.6 µM and the TGI (HOP-62 NSCLC) was 26.4 µM. It also gave a TGI (786-0 renal) of 35 µM, a TGI (ACHN renal) of 18 µM and a TGI (EKVX NSCLC) of 27.5 µM. For the same compound, the TGI (SK-MEL-5 melanoma) was 25.5 µM, the TGI (SNB-19 CNS) was 6.6 µM and the TGI (LXFL 529 NSCLC) was 18.4 µM. For the same compound, the TGI (M19-MEL melanoma) was 17.3 µM, the TGI (UACC-62 melanoma) was 20.3 µM and the TGI (OVCAR-4 ovarian) was 5.24 µM. For the same compound, the TGI (KM12 colon) was 20.7 µM, the TGI (SW-620 colon) was 14.9 µM and the TGI (SK-MEL-2 melanoma) was 24.5 µM. It also gave a TGI (SF-295 CNS) of 15.2 µM, a TGI (LOX IMVI melanoma) of 5.5 µM and a TGI (M14 melanoma) of 53.6 µM. It also gave a TGI (RXF 393 renal) of 19.3 µM, a TGI (HCT-15 colon) of 18.6 µM and a TGI (DMS 273 small cell lung) of 8.63 µM. It also gave a TGI (SF-539 CNS) of 14.7 µM, a TGI (NCI-H522 lung) of 3.79 µM and a TGI (HCC-2998 colon) of 21.3 µM. The TGI (UO-31 renal) was 3.23 µM, the TGI (SF-268 CNS) was 19.7 µM and the TGI (SN12C renal) was 16.6 µM. The TGI (MOLT-4 leukemia) was 2.66 µM, the TGI (NCI-H226 lung) was 6.67 µM and the TGI (OVCAR-3 ovarian) was 30.6 µM. The TGI (CCRF-CEM leukemia) was 16.9 µM and the TGI (COLO 205 colon) was 17.9 µM.
